Square brackets hold non-standard residues; d marks the D form. Peptide text beside a SMILES is read from it. pS = N[C@@H](COP(=O)(O)O)C(=O)O
Tests used:
[1] = cyclization of histatin-1; cited from earlier work
[2] = system: NPC knockout fibroblasts (NPC1−/−); assay: Filipin and LAMP1 staining in NPC knockout fibroblasts; type: cell-based, human
Protocol: In addition, cholesterol accumulation in wild type human skin fibroblasts or NPC knockout fibroblasts (NPC1^−/−) were evaluated with or without Hst1 treatment. […] Additionally, LAMP1 lysosomal marker accumulation in untreated NPC1^−/− cells were normalized with Hst1 treatment.

[3] = biological target: T1, Synthetic TMEM97 (108-143) (Homo sapiens, UniProt Q5BJF2); assay: Surface plasmon resonance, immobilized synthetic TMEM97 (108-143); type: binding; details: SPR
T1 construct: made in house; host or cells: chemical solid-phase synthesis (Fmoc, Wang resin)
T1 sequence (Q5BJF2 108-143 limits assumed): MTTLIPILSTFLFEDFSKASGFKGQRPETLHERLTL
Protocol: (§1) Surface Plasmon Resonance (SPR). Recombinant full-length TMEM97 (also called MAC30, from HEK293 cells) and GST-TMEM97 (108-176, recombinant GST-C terminal from wheat germ) proteins were purchased from OriGene (Rockville, Md.) and Abnova (Taipei City, Taiwan), respectively. Three peptides, TMEM97 (108-176), TMEM97 (108-143) and TMEM97 (144-176), were synthesized. All proteins and peptides were initially prepared in HBS buffer containing 10 mM HEPES, pH 7.4, 150 mM NaCl, and 0.05% surfactant P20. The CM5 sensor surface was first activated by 1-ethyl-3-(3-dimethylaminopropyl) carbodiimide hydrochloride (EDC)/N-hydroxy succinimide (NHS) mixture using a Biacore T200 or Biacore 8K instrument (GE Healthcare). […] Flow channels 1 and 3 were used as references.
(§2) The three synthesized peptides were diluted to 50 μg/mL in 10 mM sodium acetate at pH 4.0 and immobilized to flow channels 2, 3 and 4, respectively, on another sensor chip. The unmodified surfaces on a flow channel 1 were used as a reference control. Histatin solutions with a series of increasing concentrations (0.78-25 μM at 2-fold dilution) were applied to all four channels at a 30 μL/minute flow rate at 25° C. The data were double-referenced with reference channel and zero concentration responses, and reference subtracted sensorgrams were fitted with 1 to 1 Langmuir kinetic model using a Biacore T200 evaluation software V3.0 or Insight evaluation software. The equilibrium dissociation constants ([…]) were determined from two rate constants (KD=kd/ka).
(§3) To determine more precisely which segment of TMEM97 is necessary for binding of Hst1, multiple synthetic fragments of TMEM97 were generated (Table 6) and binding to Hst1 was tested using SPR. […] Smaller fragments of the C-terminal of TMEM97 were then constructed to represent the (predicted) luminal (108-143) and cytoplasmic (144-176) exposed segments of the C-terminus of TMEM97 based on modeling experiments previously described. […] SPR results for Hst1 were confirmed using ITC as an orthogonal analytical method.
(§4) To determine the region(s) of Hst1 that mediate binding to TMEM97, SPR testing was performed with various Hst1 fragments and either recombinant TMEM97 (GST-tagged, wheat-germ derived, C-terminal fragment TMEM97 (108-176)) or synthesized TMEM97 (TMEM97 (108-176), TMEM97 (108-143) and TMEM97 (144-176)).

[4] = biological target: T2, Synthetic TMEM97 (144-176) (Homo sapiens, UniProt Q5BJF2); assay: Surface plasmon resonance, immobilized synthetic TMEM97 (144-176); type: binding; details: SPR
T2 construct: made in house; host or cells: chemical solid-phase synthesis (Fmoc, Wang resin)
T2 sequence (Q5BJF2 144-176): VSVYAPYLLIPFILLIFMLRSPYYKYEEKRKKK
Protocol: as §1, §2, §3, §4

[5] = system: Synthetic TMEM97 (144-176); assay: as above; type: binding; details: mutations E170A, E171A and E170A/E171A of TMEM97 (144-176)
Protocol: as §1, §2, §3, §4

[6] = biological target: T3, full-length recombinant TMEM97 (HEK293 cells) (Homo sapiens, UniProt Q5BJF2); assay: Surface plasmon resonance, immobilized full-length TMEM97; type: binding
T3 construct: Recombinant full-length TMEM97 (also called MAC30, from HEK293 cells); purchased OriGene (Rockville, Md.); host or cells: HEK293 cells
T3 sequence (Q5BJF2 whole entry): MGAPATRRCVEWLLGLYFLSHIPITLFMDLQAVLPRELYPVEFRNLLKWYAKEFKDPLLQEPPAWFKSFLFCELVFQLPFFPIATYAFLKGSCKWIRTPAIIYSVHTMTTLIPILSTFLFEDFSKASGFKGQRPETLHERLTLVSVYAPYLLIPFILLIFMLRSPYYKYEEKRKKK

TMEM97 (144-176) = biological target: T4, TMEM97 (144-176) (Homo sapiens, UniProt Q5BJF2); assay: Isothermal titration calorimetry, C-terminal of TMEM97; type: binding; details: ITC; the C-terminal of TMEM97
T4 construct: made in house; host or cells: chemical solid-phase synthesis (Fmoc, Wang resin)
T4 sequence (Q5BJF2 144-176 limits assumed): as the sequence (Q5BJF2 144-176) above
Protocol: Isothermal Titration Calorimetry (ITC). The three synthesized peptides, TMEM97 (108-176), TMEM97 (108-143) and TMEM97 (144-176) were prepared in ITC buffer (10 mM Tris, pH 7.4, 150 mM NaCl, 0.05% polysorbate 20) at 40 μM concentration and placed in the sample cell. All ITC experiments were performed while stirring at 395 rpm, in ITC buffer at 25° C. using a VP-ITC titration microcalorimeter from MicroCal™, LLC (Northampton, Mass.). The microsyringe was loaded with a Histatin 1 solution (500 μM in ITC buffer). All titrations were conducted using an initial injection of 2.5 μL followed by 35 identical injections of 5 μL with a duration of 16 seconds (per injection) and a spacing of 210 seconds between injections. The buffer control titration (Histatin 1 into buffer) signals were subtracted from the experimental data. The collected data were evaluated using NITPIC (NIH), SEDPHAT (NIH), and GUSSI (NIH).
as §3

TMEM97 = TMEM97 (Homo sapiens, UniProt Q5BJF2); assay: ELISA on plates coated with TMEM97; type: binding
Sequence of TMEM97 (Q5BJF2 whole entry, species assumed): as the sequence (Q5BJF2 whole entry) above
Protocol: A co-immunoprecipitation (co-IP) assay was performed to determine if the interaction between Hst1 and TMEM97 was reproducible at the cellular level. […] These bands may represent monomeric and dimeric versions of Hst1 and are similar to what has been seen with western blot analyses of Hst1 containing samples. […] Enzyme-linked immunosorbent assay (ELISA) were also conducted to detect bound Hst1 on plates coated with TMEM97.

[7] = system: mouse cerebellar tissue (NPC mouse model); assay: Lipid levels in Hst1-treated NPC mouse cerebellar tissue
Text: In this respect, in addition to reducing the accumulation of cholesterol in liver tissue, histatin peptides may also be used to alter fatty acid and cholesterol metabolism in neuronal tissue thereby reducing changes associated with neurodegeneration.

GST-TMEM97 (108-176) = biological target: T5, GST-TMEM97 (108-176) (Homo sapiens, UniProt Q5BJF2); assay: Surface plasmon resonance, immobilized GST-TMEM97 (108-176); type: binding; details: for % Rmax: SPR
T5 construct: GST-TMEM97 (108-176, recombinant GST-C terminal from wheat germ); purchased Abnova (Taipei City, Taiwan); host or cells: wheat germ (cell-free)
T5 sequence (Q5BJF2 108-176): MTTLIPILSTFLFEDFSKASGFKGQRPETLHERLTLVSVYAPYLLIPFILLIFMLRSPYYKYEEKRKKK
Protocol: as §1, §2, §4

[8] = addition of either DTG or haloperidol

CC(C)C[C@H](NC(=O)[C@H](Cc1ccc(O)cc1)NC(=O)[C@H](CC(N)=O)NC(=O)[C@H](CO)NC(=O)CNC(=O)[C@H](Cc1ccc(O)cc1)NC(=O)[C@H](CC(=O)O)NC(=O)CNC(=O)[C@H](Cc1ccc(O)cc1)NC(=O)[C@H](Cc1ccccc1)NC(=O)[C@@H]1CCCN1C(=O)[C@H](Cc1ccccc1)NC(=O)[C@H](CCC(=O)O)NC(=O)[C@H](CCCNC(=N)N)NC(=O)[C@H](Cc1c[nH]cn1)NC(=O)[C@H](CO)NC(=O)[C@H](Cc1c[nH]cn1)NC(=O)[C@H](Cc1c[nH]cn1)NC(=O)[C@H](CCCCN)NC(=O)[C@H](CCC(=O)O)NC(=O)[C@H](Cc1c[nH]cn1)NC(=O)[C@H](Cc1ccccc1)NC(=O)[C@H](CCCCN)NC(=O)[C@H](CCCNC(=N)N)NC(=O)[C@H](CCCNC(=N)N)NC(=O)[C@H](Cc1ccc(O)cc1)NC(=O)CNC(=O)[C@H](Cc1c[nH]cn1)NC(=O)[C@H](Cc1c[nH]cn1)NC(=O)[C@H](CCCNC(=N)N)NC(=O)[C@H](CCCCN)NC(=O)[C@H](CCC(=O)O)NC(=O)[C@H](Cc1c[nH]cn1)NC(=O)[C@H](COP(=O)(O)O)NC(=O)[C@@H](N)CC(=O)O)C(=O)N[C@@H](Cc1ccc(O)cc1)C(=O)N[C@@H](CC(=O)O)C(=O)N[C@@H](CC(N)=O)C(=O)O [Hst1] (H-D[pS]HEKRHHGYRRKFHEKHHSHREFPFYGDYGSNYLYDN-OH; N-terminus and C-terminus assumed)
potentiation of molar activity by cyclization [1]: approximately 1000 fold | LAMP1 lysosomal marker accumulation [2]: normalized | cholesterol accumulation (Filipin stained cells) [2]: reduction in cholesterol accumulation | KD / binding [3]: unable to bind | KD / binding ([3]; listed as Hst1(1-38)): No binding | % Rmax [4]: 21% | Kd [4]: 2.4 µM | % Rmax ([4]; listed as Hst1(1-38)): (% Rmax = 22%) | effect of TMEM97 mutations on Hst1 binding [5]: did not affect | % Rmax ([6]; SPR): 32% | Kd ([6]; SPR, 25° C., 1 to 1 Langmuir kinetic model): 1.3 ± 0.3 µM | effect of added DTG or haloperidol on Hst1 binding [6, 8]: did not affect | Kd (TMEM97 (144-176)): 0.46 ± 0.12 µM | ΔH (TMEM97 (144-176)): -3310 ± 117 kJ/mol | ΔS (TMEM97 (144-176)): −2.28(±0.37)×10^3 cal/mol K | binding to TMEM97 in ELISA (TMEM97): confirmed binding | effect of DTG on Hst1 binding in ELISA (TMEM97; addition of 1,3-Di-o-tolylguanidine (DTG)): did not alter | ceramides (Cer NS, HexCer NS, SM) ([7]; 7-week-old NPC mouse model): significantly increasing | gangliosides (GM3, GM2 and GM1) ([7]; 7-week-old NPC mouse model): significantly increasing | phosphatidylinositol 4,5-bisphosphate (PIP2; 20:4/18:0) levels ([7]; NPC1−/− mouse, 9-week-old): significantly decrease | % Rmax (GST-TMEM97 (108-176)): 43% | % Rmax (GST-TMEM97 (108-176); listed as Hst1(1-38)): (% Rmax = 23%) | effect of added DTG or haloperidol on Hst1 binding (GST-TMEM97 (108-176); [8]): did not affect
